Data taken from US20100041089A1, “IMPROVED METHOD FOR DETECTING CHEMICAL […]” (priority 2006, published 2010).

Test system: yeast genes (expressed mRNA)
Experiment: DNA chip measurement of expressed mRNA of yeast genes after culture with a toxic chemical substance
Type: cell-based, Saccharomyces cerevisiae S288C
Conditions: for level of expressed mRNA in the presence of chemical substance / level in the absence of chemical substance: cultured two hours with the chemical substance; for The level of expressed mRNA in the presence of chemical substance/The level of expressed mRNA in the absence of chemical substance: cultured two hours with substance
In short: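 S. cerevisiae S288C grown at 25 °C in YPD, exposed in log phase for 2 h to a toxicant at growth-inhibiting, non-lethal concentration. Cy3/Cy5-labelled cDNA from poly(A) mRNA hybridized to whole-genome chip at 65 °C >12 h. Ratio to untreated control, ≥2 significant.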

“Manganese ethylenebis(dithiocarbamate) [(8)]” was tested, and the “The level of expressed mRNA in the presence of chemical substance/The level of expressed mRNA in the absence of chemical substance, yeast gene YBR036C” value (gene YBR036C, Metabolism protein genes, DNA chip fluorescence ratio) was 0.7, the “The level of expressed mRNA in the presence of chemical substance/The level of expressed mRNA in the absence of chemical substance, yeast gene YBR298C” value (gene YBR298C, Metabolism protein genes, DNA chip fluorescence ratio) was 0.5 and the “The level of expressed mRNA in the presence of chemical substance/The level of expressed mRNA in the absence of chemical substance, yeast gene YDL067C” value (gene YDL067C (mitochondria-located protein gene), yeast cultured two hours with chemical substance, DNA chip fluorescence ratio to control) was 1.1. The “The level of expressed mRNA in the presence of chemical substance/The level of expressed mRNA in the absence of chemical substance, yeast gene YDL078C” value (gene YDL078C, Metabolism protein genes, DNA chip fluorescence ratio) was 1.0, the “The level of expressed mRNA in the presence of chemical substance/The level of expressed mRNA in the absence of chemical substance, yeast gene YDL215C” value (gene YDL215C, Metabolism protein genes, DNA chip fluorescence ratio) was 1.1 and the “The level of expressed mRNA in the presence of chemical substance/The level of expressed mRNA in the absence of chemical substance, yeast gene YDR079W” value (gene YDR079W (mitochondria-located protein gene), yeast cultured two hours with chemical substance, DNA chip fluorescence ratio to control) was 2.6. For the same substance, the “The level of expressed mRNA in the presence of chemical substance/The level of expressed mRNA in the absence of chemical substance, yeast gene YDR297W” value (gene YDR297W, Metabolism protein genes, DNA chip fluorescence ratio) was 1.5, the “The level of expressed mRNA in the presence of chemical substance/The level of expressed mRNA in the absence of chemical substance, yeast gene YDR387C” value (gene YDR387C, Metabolism protein genes, DNA chip fluorescence ratio) was 0.7 and the “The level of expressed mRNA in the presence of chemical substance/The level of expressed mRNA in the absence of chemical substance, yeast gene YGL035C” value (gene YGL035C, Metabolism protein genes, DNA chip fluorescence ratio) was 1.3. The “The level of expressed mRNA in the presence of chemical substance/The level of expressed mRNA in the absence of chemical substance, yeast gene YGR062C” value (gene YGR062C (mitochondria-located protein gene), yeast cultured two hours with chemical substance, DNA chip fluorescence ratio to control) was 0.8, the “The level of expressed mRNA in the presence of chemical substance/The level of expressed mRNA in the absence of chemical substance, yeast gene YGR287C” value (gene YGR287C, Metabolism protein genes, DNA chip fluorescence ratio) was 1.3 and the “The level of expressed mRNA in the presence of chemical substance/The level of expressed mRNA in the absence of chemical substance, yeast gene YJL070C” value (gene YJL070C, Metabolism protein genes, DNA chip fluorescence ratio) was 1.1. The “The level of expressed mRNA in the presence of chemical substance/The level of expressed mRNA in the absence of chemical substance, yeast gene YJL096W” value (gene YJL096W (mitochondria-located protein gene), yeast cultured two hours with chemical substance, DNA chip fluorescence ratio to control) was 1.3, the “The level of expressed mRNA in the presence of chemical substance/The level of expressed mRNA in the absence of chemical substance, yeast gene YJL180C” value (gene YJL180C (mitochondria-located protein gene), yeast cultured two hours with chemical substance, DNA chip fluorescence ratio to control) was 1.0 and the “The level of expressed mRNA in the presence of chemical substance/The level of expressed mRNA in the absence of chemical substance, yeast gene YKR009C” value (gene YKR009C, Metabolism protein genes, DNA chip fluorescence ratio) was 0.9. The “The level of expressed mRNA in the presence of chemical substance/The level of expressed mRNA in the absence of chemical substance, yeast gene YLR295C” value (gene YLR295C (mitochondria-located protein gene), yeast cultured two hours with chemical substance, DNA chip fluorescence ratio to control) was 1.2, the “The level of expressed mRNA in the presence of chemical substance/The level of expressed mRNA in the absence of chemical substance, yeast gene YLR351C” value (gene YLR351C, Metabolism protein genes, DNA chip fluorescence ratio) was 1.2 and the “The level of expressed mRNA in the presence of chemical substance/The level of expressed mRNA in the absence of chemical substance, yeast gene YLR375W” value (gene YLR375W, Metabolism protein genes, DNA chip fluorescence ratio) was 1.0. The “The level of expressed mRNA in the presence of chemical substance/The level of expressed mRNA in the absence of chemical substance, yeast gene YMR023C” value (gene YMR023C (mitochondria-located protein gene), yeast cultured two hours with chemical substance, DNA chip fluorescence ratio to control) was 1.4, the “The level of expressed mRNA in the presence of chemical substance/The level of expressed mRNA in the absence of chemical substance, yeast gene YMR267W” value (gene YMR267W (mitochondria-located protein gene), yeast cultured two hours with chemical substance, DNA chip fluorescence ratio to control) was 1.5 and the “The level of expressed mRNA in the presence of chemical substance/The level of expressed mRNA in the absence of chemical substance, yeast gene YMR267W” value (gene YMR267W, Metabolism protein genes, DNA chip fluorescence ratio) was 1.5. For the same substance, the “The level of expressed mRNA in the presence of chemical substance/The level of expressed mRNA in the absence of chemical substance, yeast gene YMR278W” value (gene YMR278W, Metabolism protein genes, DNA chip fluorescence ratio) was 1.1, the “The level of expressed mRNA in the presence of chemical substance/The level of expressed mRNA in the absence of chemical substance, yeast gene YMR293C” value (gene YMR293C, Metabolism protein genes, DNA chip fluorescence ratio) was 1.0 and the “The level of expressed mRNA in the presence of chemical substance/The level of expressed mRNA in the absence of chemical substance, yeast gene YNL073W” value (gene YNL073W (mitochondria-located protein gene), yeast cultured two hours with chemical substance, DNA chip fluorescence ratio to control) was 1.0. The “The level of expressed mRNA in the presence of chemical substance/The level of expressed mRNA in the absence of chemical substance, yeast gene YNR072W” value (gene YNR072W, Metabolism protein genes, DNA chip fluorescence ratio) was 0.9, the “The level of expressed mRNA in the presence of chemical substance/The level of expressed mRNA in the absence of chemical substance, yeast gene YOL096C” value (gene YOL096C, Metabolism protein genes, DNA chip fluorescence ratio) was 1.0 and the “The level of expressed mRNA in the presence of chemical substance/The level of expressed mRNA in the absence of chemical substance, yeast gene YOR180C” value (gene YOR180C, Metabolism protein genes, DNA chip fluorescence ratio) was 0.9. The “The level of expressed mRNA in the presence of chemical substance/The level of expressed mRNA in the absence of chemical substance, yeast gene YOR316C” value (gene YOR316C (mitochondria-located protein gene), yeast cultured two hours with chemical substance, DNA chip fluorescence ratio to control) was 0.8, the “The level of expressed mRNA in the presence of chemical substance/The level of expressed mRNA in the absence of chemical substance, yeast gene YOR363C” value (gene YOR363C, Metabolism protein genes, DNA chip fluorescence ratio) was 1.1 and the “The level of expressed mRNA in the presence of chemical substance/The level of expressed mRNA in the absence of chemical substance, yeast gene YPL040C” value (gene YPL040C (mitochondria-located protein gene), yeast cultured two hours with chemical substance, DNA chip fluorescence ratio to control) was 1.1. The “The level of expressed mRNA in the presence of chemical substance/The level of expressed mRNA in the absence of chemical substance, yeast gene YPL134C” value (gene YPL134C (mitochondria-located protein gene), yeast cultured two hours with chemical substance, DNA chip fluorescence ratio to control) was 1.3, the “The level of expressed mRNA in the presence of chemical substance/The level of expressed mRNA in the absence of chemical substance, yeast gene YPR184W” value (gene YPR184W, Metabolism protein genes, DNA chip fluorescence ratio) was 0.7 and the “level of expressed mRNA in the presence of chemical substance / level in the absence of chemical substance” value (yeast gene YAL018C) was 1.6. The “The level of expressed mRNA in the presence of chemical substance/The level of expressed mRNA in the absence of chemical substance” value (yeast gene YAL053W) was 0.8, the “level of expressed mRNA in the presence of chemical substance / level in the absence of chemical substance” value (yeast gene YAR047C) was 0.8 and the “level of expressed mRNA in the presence of chemical substance / level in the absence of chemical substance” value (yeast gene YAR064W) was 1.1. The “level of expressed mRNA in the presence of chemical substance / level in the absence of chemical substance” value (yeast gene YBL044W) was 0.7, the “The level of expressed mRNA in the presence of chemical substance/The level of expressed mRNA in the absence of chemical substance” value (yeast gene YBL048W) was 1.2 and the “The level of expressed mRNA in the presence of chemical substance/The level of expressed mRNA in the absence of chemical substance” value (yeast gene YBL107C) was 1.9. For the same substance, the “level of expressed mRNA in the presence of chemical substance / level in the absence of chemical substance” value (yeast gene YBR012C) was 1.1, the “level of expressed mRNA in the presence of chemical substance / level in the absence of chemical substance” value (yeast gene YBR066C) was 1.2 and the “level of expressed mRNA in the presence of chemical substance / level in the absence of chemical substance” value (yeast gene YBR124W) was 1.2. The “level of expressed mRNA in the presence of chemical substance / level in the absence of chemical substance” value (yeast gene YBR162C) was 0.8, the “level of expressed mRNA in the presence of chemical substance / level in the absence of chemical substance” value (yeast gene YBR287W) was 1.0 and the “level of expressed mRNA in the presence of chemical substance / level in the absence of chemical substance” value (yeast gene YCL042W) was 0.6. The “level of expressed mRNA in the presence of chemical substance / level in the absence of chemical substance” value (yeast gene YCL056C) was 1.0, the “level of expressed mRNA in the presence of chemical substance / level in the absence of chemical substance” value (yeast gene YCR007C) was 1.0 and the “level of expressed mRNA in the presence of chemical substance / level in the absence of chemical substance” value (yeast gene YDL046W) was 0.7. The “The level of expressed mRNA in the presence of chemical substance/The level of expressed mRNA in the absence of chemical substance” value (yeast gene YDL072C) was 0.8, the “The level of expressed mRNA in the presence of chemical substance/The level of expressed mRNA in the absence of chemical substance” value (yeast gene YDL204W) was 1.1 and the “The level of expressed mRNA in the presence of chemical substance/The level of expressed mRNA in the absence of chemical substance” value (yeast gene YDL222C) was 0.7. The “level of expressed mRNA in the presence of chemical substance / level in the absence of chemical substance” value (yeast gene YDR090C) was 0.8.
